Assay results taken from patent publication US11517554B2, “Method for preventing or treating Alzheimer's disease” (OLATEC THERAPEUTICS LLC, priority 2018, dated 2022).

Tests used:
[1] = system: APP/PS1 mice hippocampal slices, Schaffer collateral CA3 to CA1 pathway; experiment: Long-term potentiation (LTP) in acute hippocampal slices of APP/PS1 mice; type: in vivo; conditions: for normalized mean LTP of last 5 minutes of recording: APP/PS1 mice, 55-60 min after TBS, APP/PS1 untreated 1.303, wildtype 1.553
Procedure: (§1) In the study design, 6-month-old wild-type (WT), and AD transgenic APP/PS1[deltaE9] mice were treated with oral dapansutrile via feed pellets ad libitum (approximately 0, 50 or 100 mg/kg/day based on feed concentrations of 0, 3.75 or 7.5 g/kg and food consumption of 4 g/day) for the treatment duration of 3 months. At 9 months old, behavior testing of the mice was performed. In addition, the brains of the mice were extracted, and blood samples were collected. The brains of the mice from each group were performed for electrophysiological and neuronal morphological analysis, cytokine levels and other assays.
Given the observed recovery in the impaired learning and memory processes in APP/PS1 mice treated with 1000 mg/kg/day dapansutrile (Example 5), we were interested in determining whether hippocampal network function would be recovered following medium dose of dapansutrile administration. For this purpose, we analyzed synaptic plasticity at the Schaffer collateral pathway connecting the CA3 with the CA1 subfield, one of the most extensively studied synapses in the central nervous system. Long-term potentiation (LTP) as a cellular correlation of learning processes at the Schaffer collateral CA3 to CA1 pathway was induced by theta-burst stimulation (TBS) after 20 min of baseline recording.
Acute hippocampal slices were prepared from mice in four groups including wild-type, APP/PS1, APP/PS1 treated with 500 mg/kg/day and APP/PS1 treated with 1000 mg/kg/day of dapansutrile. Briefly, mice were deeply anesthetized with 100% CO2, killed, and then brains were quickly removed and transferred into ice-cold carbogenated (95% O2 and 5% CO2) artificial CSF (ACSF) solution. Afterward, the hippocampus was dissected and transverse hippocampal slices (400 μm) were obtained using a manual tissue chopper. The hippocampal slices were transferred to an interface recording chamber, where they were incubated at 32° C. with a constant flow rate (0.5 ml/min) of carbogenated ACSF for 2 h before the start of recordings. Field excitatory post synaptic potentials (fEPSPs) were recorded in the stratum radiatum of the CA1 region in hippocampal slices. Responses were evoked by stimulation of the Schaffer collateral pathway using two electrodes. These stimulation electrodes (S1 and S2) were positioned equidistantly on both sides of the recording electrode and, by this means, two independent stimulation pathways could be used for the same CA1 recording region. For recording fEPSPs (measured as the first slope function), the recording electrode was placed in the CA1 apical dendritic layer and signals were amplified by a differential amplifier and digitized. […] The slope of fEPSPs was measured over time for 60 min and normalized to the baseline. […]

[2] = system: opioid receptors; experiment: Off-target screening: opioid receptors; type: binding; conditions: screening assay
Procedure: (§2) To investigate potential off-target activity of dapansutrile, secondary pharmacological effects were assessed through in vitro screening assays. […] An evaluation of 68 critical transmembrane and soluble receptors, ion channels and monoamine transporters were performed for off-target effects of dapansutrile. An additional 69 receptors and enzymes were evaluated with dapansutrile for potential activity in a follow-on study that focused on enzymes involved in inflammatory cascades. A single identified target, the PDE4 enzyme, was inhibited in a concentration range of ≥100 μM (13 μg/mL) and was dose-responsive for effect, but subsequent studies were not conclusive.

[3] = target: COX-1 (Homo sapiens, UniProt P23219); experiment: Off-target screening: COX-1; type: biochemical; conditions: screening assay
COX-1, sequence (P23219 24-599): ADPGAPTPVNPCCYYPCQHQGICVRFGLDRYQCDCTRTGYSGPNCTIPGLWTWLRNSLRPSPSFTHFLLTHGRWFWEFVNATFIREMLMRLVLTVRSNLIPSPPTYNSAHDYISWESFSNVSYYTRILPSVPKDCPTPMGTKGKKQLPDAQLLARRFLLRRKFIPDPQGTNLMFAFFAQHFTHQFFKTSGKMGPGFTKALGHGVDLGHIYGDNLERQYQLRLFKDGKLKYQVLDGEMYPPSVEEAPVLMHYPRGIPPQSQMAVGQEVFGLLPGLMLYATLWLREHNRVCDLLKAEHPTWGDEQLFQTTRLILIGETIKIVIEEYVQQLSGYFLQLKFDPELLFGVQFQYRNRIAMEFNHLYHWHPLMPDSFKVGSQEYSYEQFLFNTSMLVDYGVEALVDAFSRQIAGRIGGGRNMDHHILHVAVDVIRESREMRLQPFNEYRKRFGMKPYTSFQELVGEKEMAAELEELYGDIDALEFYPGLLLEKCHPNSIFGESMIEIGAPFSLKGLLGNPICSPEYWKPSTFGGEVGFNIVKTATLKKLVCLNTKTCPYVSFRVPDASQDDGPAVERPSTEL
Procedure: as §2

[4] = system: PDE4 enzyme; experiment: Off-target screening: PDE4 enzyme inhibition; type: biochemical
Procedure: as §2

[5] = system: IL-1β challenged mice; experiment: IL-6 and MPO levels after IL-1β intraperitoneal challenge in treated mice (ELISA); type: in vivo; conditions: 200 mg/kg, 8 injections over 4 days
Procedure: Mice were treated with 200 mg/kg dapansutrile (OLT1177™) for 8 injections over 4 days. Mice were trained on a rotarod on day 3. Twelve hours after the last injection, mice were run on the rotarod for distance. One hour after the rotarod, mice were challenged with 60 ng IL-1β intraperitoneally; mice were then sacrificed 4 hours later. Whole blood, plasma, brain, and lung of the mice were collected. Whole blood was cultured, plasma was frozen. Brain was processed for cytokine analysis. Each group had N=5. Ex vivo samples were obtained from the brain of mice treated with vehicle or dapansutrile and subjected to exhaustive exercise.

[6] = target: T1, COX-2 (Homo sapiens, UniProt P35354); experiment: Off-target screening: COX-2; type: biochemical; conditions: screening assay
T1 sequence (P35354 18-604): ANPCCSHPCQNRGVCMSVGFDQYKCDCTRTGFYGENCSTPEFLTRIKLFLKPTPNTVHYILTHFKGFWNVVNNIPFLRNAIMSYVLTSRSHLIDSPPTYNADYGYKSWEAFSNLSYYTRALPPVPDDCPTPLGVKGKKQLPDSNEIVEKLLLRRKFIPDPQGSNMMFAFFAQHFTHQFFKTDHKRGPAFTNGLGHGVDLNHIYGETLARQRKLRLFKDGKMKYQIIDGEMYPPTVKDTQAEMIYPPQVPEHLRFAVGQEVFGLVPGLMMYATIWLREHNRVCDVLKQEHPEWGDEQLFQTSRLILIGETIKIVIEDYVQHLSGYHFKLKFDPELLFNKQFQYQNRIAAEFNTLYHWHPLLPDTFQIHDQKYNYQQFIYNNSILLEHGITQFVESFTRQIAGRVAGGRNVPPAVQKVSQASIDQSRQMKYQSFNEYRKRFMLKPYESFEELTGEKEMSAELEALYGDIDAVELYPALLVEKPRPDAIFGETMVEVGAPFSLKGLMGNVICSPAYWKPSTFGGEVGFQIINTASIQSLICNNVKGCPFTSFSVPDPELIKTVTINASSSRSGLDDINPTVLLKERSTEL
Procedure: as §2

[7] = system: pro-IL-18; experiment: In vitro screening: inhibition of pro-IL-18; type: cell-based
Procedure: as §2

[8] = system: APP/PS1 mice; experiment: Morris water maze test in APP/PS1 mice; type: in vivo
Procedure: as §1
Spatial memory formation and retention were assessed using the Morris water maze (MWM) assay. A 10 cm escape platform was submerged 1 cm below the water surface into a circular plastic pool filled up with opaque water. Three visual cues were positioned on the walls around the pool. A digital camera was installed above the center of the maze. Images will be acquired and transmitted to a PC running the tracking software ANY-maze (ANY-maze). On the first three days (pre-training) the mice were trained using a visible platform (the platform was placed above the water surface).
To assess spatial memory formation, the mice were trained to locate the hidden platform for 8 consecutive days. The escape latency of each trial (4 per day with an interval of 3-5 min) was recorded and analyzed by the tracking software. At training day 3 and at day 9, memory retention was assessed in a probe trial performed by removing the platform and analyzing the search pattern used by each mouse for a fixed time of 45 seconds.
The escape latency which describes the time mice need to find the hidden platform was measured and was analyzed as the mean value of the 4 trials each day and shown in FIG. 3A; all genotypes decreased the escape latency from day 1 to day 8. For example, on day 5, wildtype mice (N=8) needed 23.59±4.08 seconds to reach the platform. APP/PS1 (500 mg/kg/day dapansutrile treated) mice (N=5) needed 37.31±4.96 seconds, and APP/PS1 (1000 mg/kg dapansutrile treated) mice (N=6) needed 21.30±3.19 seconds (p value=0.021), compared to APP/PS1 (control food) mice (n=6) needed 42.04±6.89 seconds.
To provide the evidence for cognitive learning 24 hours after the last training session, a reverence test was performed (probe trial) on training day 9. Here, mice were tested in the water maze without the platform to escape and the time was measured in which quadrant the mice spend their time. We compare the mean time in percentage of the three non-target quadrants (NT) to the time in percentage of the target quadrant (TQ, platform was located during training period). […] Whereas there was no preference for a TQ over NT in APP/PS1 (control food) and APP/PS1 500 mg/kg/day (low dose).

[9] = system: NLRC4 inflammasome pathway; experiment: In vitro screening: cytokine production via NLRC4 inflammasome pathway; type: cell-based
[10] = system: APP/PS1 mice; experiment: Cytokine levels of brain homogenates of APP/PS1 mice (ELISA); type: in vivo; conditions: 3 months, vs control food
Procedure: as §1
One hemisphere of each mouse was homogenized in STKM-buffer and centrifuged for 10 min at 4° C. with 13,000 g. The supernatant of the brain lysate was collected and measured for pro-inflammatory mediators IL-6 and IL-1β by ELISA by diluting the sample 1:2. […] The IL-1β levels were reduced in APP/PS1 mice treated with dapansutrile at a low dose (500 mg/kg/day, p value=0.0287) and a medium dose (1000 mg/kg/day, p value=0.0368) compared to APP/PS1 mice fed with control food (FIG. 2B)

[11] = system: 68 critical transmembrane and soluble receptors, ion channels and monoamine transporters; additional 69 receptors and enzymes; experiment: Off-target screening panels (68 receptors, ion channels, monoamine transporters; additional 69 receptors and enzymes); conditions: all targets other than PDE4
Procedure: as §2

[12] = system: pro-IL-1; experiment: In vitro screening: inhibition of pro-IL-1; type: cell-based
Procedure: as §2

[13] = system: AIM2 inflammasome pathway; experiment: In vitro screening: cytokine production via AIM2 inflammasome pathway; type: cell-based
[14] = exhaustive exercise, 60 ng IL-1β i.p., 4 hours later, vs vehicle

SMILES: CS(=O)(=O)CCC#N [dapansutrile, 3-Methanesulfonylpropionitrile]
- LTP impairment in APP/PS1 mice ([1]; 1000 mg/kg/day): rescued
- normalized mean LTP of last 5 minutes of recording ([1]; low dose (500 mg/kg/day), N=2, n=8): 1.198
- normalized mean LTP of last 5 minutes of recording ([1]; medium dose (1000 mg/kg/day), N=1, n=7): 1.469
- LTP deficit in APP/PS1 mice ([1]; low dose, 500 mg/kg/day): not able to improve
- interaction with opioid receptors [2]: no interaction
- direct effects on COX-1 [3]: no direct effects
- concentration range in which PDE4 enzyme was inhibited ([4]; dose-responsive, subsequent studies not conclusive): ≥ 100 µM
- concentration range in which PDE4 enzyme was inhibited ([4]; same bound given in μg/mL): ≥ 13 µg/mL
- level of systemic IL-1β after IL-1β stimulation ([5]; data not shown): also reduced
- level of systemic IL-6 after IL-1β stimulation ([5]; data not shown): also reduced
- level of systemic MPO after IL-1β stimulation ([5]; data not shown): also reduced
- IL-6 level in the brain [5, 14]: reduced levels
- myeloperoxidase (MPO) level in the brain [5, 14]: reduced levels
- direct effects on COX-2 [6]: no direct effects
- inhibition of pro-IL-18 [7]: no inhibition
- escape latency (time to reach the hidden platform) ([8]; 500 mg/kg/day, day 5, N=5, APP/PS1 control food 42.04±6.89, wildtype 23.59±4.08): 37.31 ± 4.96 s
- preference for the target quadrant (TQ) over non-target quadrants (NT), probe trial ([8]; 500 mg/kg/day, day 9): no preference
- escape latency (time to reach the hidden platform) ([8]; 1000 mg/kg, day 5, N=6, p value=0.021, APP/PS1 control food 42.04±6.89, wildtype 23.59±4.08): 21.30 ± 3.19 s
- preference for the target quadrant (TQ) over non-target quadrants (NT), probe trial ([8]; 1000 mg/kg/day, day 9, p value=0.0001): significant preference
- inhibitory effect on cytokine production via the NLRC4 inflammasome pathway [9]: no inhibitory effect
- IL-1β levels in brain lysate ([10]; 500 mg/kg/day oral via feed, p value=0.0287): reduced
- IL-6 levels in brain lysate ([10]; 1000 mg/kg/day oral via feed, p value=0.0035): reduced
- IL-1β levels in brain lysate ([10]; 1000 mg/kg/day oral via feed, p value=0.0368): reduced
- other effects in the screening assays [11]: No other effects were noted
- inhibition of pro-IL-1 [12]: no inhibition
- inhibitory effect on cytokine production via the AIM2 inflammasome pathway [13]: no inhibitory effect
